Assays:
[1] = tested on: atherosclerotic plaques; assay: Plaque disruption by MRI before and after triggering in a rabbit model of atherosclerosis (cholesterol diet plus balloon injury); format: in vivo, New Zealand White (NZW) rabbits; settings: for plaque stabilization: applied to both sides of the mandible on the gingiva every-other-day, high cholesterol diet and balloon injury to descending thoracic and abdominal aortic segments
Procedure: New Zealand White (NZW) rabbits (n=10) received cholesterol-enriched diet (1%) for 8 weeks to develop atherosclerosis. In addition, balloon injury was performed at 2 weeks to advance the atherosclerosis at the descending thoracic and abdominal aortic segments. The […] of cholesterol feeding was followed by a 4 week period of normal chow diet at the end of the experiment. Half of the rabbits were randomized in the experimental (9,12 benzo LXA4-treated) group and half in the control group.
Topical LXA4 (1 mg/ml) was applied on both side of the mandible on the gingiva every-other-day for the duration of the experiment. In vivo MRI images were taken at 12 weeks at before and after triggering. After euthanasia, the aortas were dissected for ex-vivo MRI and histology.

[2] = tested on: polymorphonuclear leukocyte (PMN) infiltration; settings: in vivo, mouse model of acute inflammation; cited from earlier work

| Compound | plaque stabilization [1] | segments that showed disruption (post-trigger image showed a luminal thrombus) of segments analyzed ([1]; treatment group, topical 1 mg/ml on gingiva, both sides of the mandible, every-other-day, in vivo MRI at 12 weeks, only one site in one rabbit) | levels of pro-inflammatory cytokines [2] | polymorphonuclear leukocyte (PMN) infiltration [2] |
| --- | --- | --- | --- | --- |
| CC[C@@H](O)/C=C/C=C\C[C@@H](O)/C=C/C=C/C=C\[C@@H](O)CCCC(=O)O [Resolvin E1] | sufficient to stabilize atherosclerotic plaques |  |  |  |
| 9,12 benzo LXA4 | sufficient to stabilize atherosclerotic plaques | 2/104 | significantly reducing | significantly reducing |

— patent publication US20230355562A1, “METHODS FOR STABILIZING ATHEROSCLEROTIC PLAQUES USING LIPOXINS, RESOLVINS, AND ANALOGS THEREOF” (The Forsyth Institute, priority 2015, published 2023)
